From ChEMBL document CHEMBL2074339, “The use of a dendrimer-propranolol prodrug to bypass efflux transporters and enhance oral bioavailability” (J Control Release, 2004)

Legend:
[1] = target: T1, ATP-dependent translocase ABCB1 (Homo sapiens, UniProt P08183); experiment: TP_TRANSPORTER: transepithelial transport of propranolol in Caco2 cells; format: functional, cell-based; conditions: caco-2
[2] = target: T1, ATP-dependent translocase ABCB1; experiment: TP_TRANSPORTER: transepithelial transport in Caco2 cells; format: functional, cell-based; conditions: caco-2

T1 sequence (P08183 whole entry): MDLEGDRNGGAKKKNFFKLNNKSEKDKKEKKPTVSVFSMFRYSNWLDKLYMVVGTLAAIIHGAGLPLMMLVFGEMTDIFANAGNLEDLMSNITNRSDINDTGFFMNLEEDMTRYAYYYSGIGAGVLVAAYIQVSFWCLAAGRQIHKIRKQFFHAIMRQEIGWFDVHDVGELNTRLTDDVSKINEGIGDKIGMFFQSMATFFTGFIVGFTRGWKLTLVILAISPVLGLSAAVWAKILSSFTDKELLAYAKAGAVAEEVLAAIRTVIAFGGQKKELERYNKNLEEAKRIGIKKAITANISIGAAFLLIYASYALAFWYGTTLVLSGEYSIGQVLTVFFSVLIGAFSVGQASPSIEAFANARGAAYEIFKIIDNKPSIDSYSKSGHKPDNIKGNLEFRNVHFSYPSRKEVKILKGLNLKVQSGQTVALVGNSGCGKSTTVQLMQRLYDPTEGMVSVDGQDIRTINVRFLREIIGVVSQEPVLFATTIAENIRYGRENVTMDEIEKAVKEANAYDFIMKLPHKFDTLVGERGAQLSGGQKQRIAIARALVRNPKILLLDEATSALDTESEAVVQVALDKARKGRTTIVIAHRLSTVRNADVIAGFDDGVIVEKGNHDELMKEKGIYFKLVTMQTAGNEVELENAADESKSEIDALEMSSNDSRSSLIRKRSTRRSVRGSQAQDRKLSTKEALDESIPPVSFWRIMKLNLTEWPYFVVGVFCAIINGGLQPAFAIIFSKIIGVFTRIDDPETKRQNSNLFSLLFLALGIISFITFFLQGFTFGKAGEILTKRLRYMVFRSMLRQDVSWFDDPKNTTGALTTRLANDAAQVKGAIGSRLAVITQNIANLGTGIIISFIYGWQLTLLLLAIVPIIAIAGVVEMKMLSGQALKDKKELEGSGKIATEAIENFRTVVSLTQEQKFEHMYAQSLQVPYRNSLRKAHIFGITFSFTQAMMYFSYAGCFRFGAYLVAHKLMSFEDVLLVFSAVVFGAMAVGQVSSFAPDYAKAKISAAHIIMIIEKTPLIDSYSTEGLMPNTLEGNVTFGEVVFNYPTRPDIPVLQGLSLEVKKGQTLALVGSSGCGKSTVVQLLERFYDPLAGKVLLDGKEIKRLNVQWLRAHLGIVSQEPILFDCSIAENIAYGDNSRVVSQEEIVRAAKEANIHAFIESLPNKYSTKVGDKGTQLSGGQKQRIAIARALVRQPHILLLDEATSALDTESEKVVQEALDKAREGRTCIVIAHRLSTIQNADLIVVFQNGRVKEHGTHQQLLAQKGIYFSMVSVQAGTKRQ

Activity [1]	Activity [2]	Compound
is not an inhibitor [-]	–	G3 PAMAM DENDRIMER
–	substrate [+]	CC(C)NCC(O)COc1cccc2ccccc12 (configuration not stated) [PROPRANOLOL]
